Common to all, as to test: NCI anticancer screen, dose series, 48 h
Test [1] deals with EKVX NSCLC.
For test [2], the system named is HCT-116 colon.
The subject of test [3] is HCT-15 colon.
The subject of test [4] is LOX IMVI melanoma.
Test [5] has as its system MDA-MB-231 breast.
Test [6] concerns OVCAR-3 ovarian.
For test [7], the system named is OVCAR-8 ovarian.
Test [8] deals with SF-295 CNS.
Test [9] relates to SK-OV-3 ovarian.
Test [10] has as its system UO-31 renal.

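In this assay, cells in 96-well plates receive the compound at five concentrations for 48 hours. Endpoints are linearly interpolated between the surrounding concentrations. GI50 is the concentration that inhibits growth by half. TGI: total growth inhibition.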

From PubChem BioAssay (NCI) come the findings set out here.

As to `COc1ccc(Nc2ncnc3ccc(-c4cncc(NS(C)(=O)=O)c4)cc23)cc1Cl`, the GI50 in [1] is 1.99 µM; in test [2], 2.05 µM; in test [3], 3.6 µM; in test [4], 1.5 µM; in [5] it was 2.71 µM; in test [6] it was 1.66 µM. Further, the GI50 was 3.62 µM in test [7], 2.51 µM in test [8], 2.49 µM in test [9] and 3.04 µM in [10]. The TGI in test [1] amounted to 6.82 µM; in test [2], 5.69 µM; in [3], 14.1 µM; in [4], 4.28 µM; in test [5], 15.3 µM; in test [6], 4.78 µM. For the same compound, the TGI was determined as 16.5 µM in [7], 10.1 µM in test [8], 6.93 µM in [9] and 22.5 µM in test [10].

Turning to `Cc1c(Nc2nccc3cc(CN4CC[C@@H](O)C4)cnc23)cccc1-c1cccc(-c2nc3cc(CN4CC[C@@H](C(=O)O)C4)cc(C#N)c3o2)c1C`, the GI50 is above 100 µM in [1]; 6.06 µM in [2]; 3.79 µM in test [3]; 1.97 µM in [4]; 7.45 µM in test [5]; 14.8 µM in test [6]. Further, the GI50 in test [7] was 12.4 µM; in test [8] it was 3.98 µM; in test [9], above 100 µM; in test [10] it was 4.7 µM. In addition, the TGI in test [1] is above 100 µM; in [2], 23.6 µM; in [3], 15.8 µM; in [4], 4.27 µM; in test [5] it was 26.2 µM; in [6], above 100 µM. Moreover, the TGI in test [7] was 36.2 µM; in test [8] it was above 100 µM; in [9], above 100 µM; in test [10] it was above 100 µM.

As to `NC1=NC(SCc2ccccc2CCl)c2ncn(Cc3ccccc3CCl)c2N1` (stereo not given), the GI50 is 3.14 µM in test [1]; 1.47 µM in test [2]; 2.9 µM in test [3]; 1.35 µM in [4]; 2.9 µM in [5]; 1.32 µM in test [6]. For the same compound, the GI50 is 2.01 µM in [7], 1.98 µM in test [8], 3.87 µM in [9] and 1.51 µM in test [10]. The TGI is 11.6 µM in test [1]; 3.06 µM in test [2]; 12.3 µM in test [3]; 2.92 µM in [4]; 11.4 µM in test [5]; 2.99 µM in test [6]. Also, the TGI in test [7] stood at 5.09 µM; in [8] it was 5 µM; in test [9], 13.9 µM; in test [10], 3.08 µM.

On to `CCN1CCN(c2cc(C(=O)Nc3cccc(Nc4ccc5c(OC)cccc5n4)c3)cc(C(F)(F)F)c2)CC1`, for which the GI50 in test [1] was 3.07 µM; in [2] it was 0.872 µM; in test [3], 0.797 µM; in test [4] it was 0.781 µM; in test [5], 1.8 µM; in [6], 3.41 µM. Also, the GI50 was 1.97 µM in test [7], 0.803 µM in test [8], 4.6 µM in [9] and 0.746 µM in [10]. The TGI in [1] turned out to be 9.46 µM; in test [2] it was 3.54 µM; in test [3], 2.26 µM; in test [4] it was 1.96 µM; in test [5] it was 6.47 µM; in [6], 9.04 µM. Further, the TGI came to 7.64 µM in test [7], 2.25 µM in test [8], 11 µM in [9] and 3.88 µM in test [10].

With `COC(=O)CC1(O)C=CC(=O)C=C1`, the TGI in test [1] came out at 15.5 µM; in [2] it was 26.7 µM; in test [3], 8.76 µM; in test [4], 6.76 µM; in test [5] it was 6.51 µM; in [6] it was 13.7 µM. In addition, the TGI turned out to be 17.3 µM in test [7], 17.7 µM in [8], 29.6 µM in test [9] and 9.93 µM in test [10].

On to `OCCCCC#Cc1ccccc1C#Cc1cccnc1`, for which the GI50 in [1] was 41.7 µM; in test [2], 45.9 µM; in [3], 21.9 µM; in test [4], 29.6 µM; in [5] it was 22.4 µM; in test [6], 32.9 µM. For the same compound, the GI50 in test [7] was 30.7 µM; in test [8], 22.3 µM; in test [9], 57.3 µM; in test [10], 25.2 µM. For the same compound, the TGI in [1] is above 100 µM; in test [2] it was above 100 µM; in test [3] it was 74.1 µM; in test [4], above 100 µM; in test [5] it was 69.7 µM; in [6], above 100 µM. Besides, the TGI is above 100 µM in [7], 60.4 µM in test [8], above 100 µM in test [9] and 90.4 µM in [10].

For `Nc1nc(Cl)nc2c1ncn2C1OC(CO)C(O)C1F` (stereo not given), the GI50 is 1.46 µM in [1]; 0.0322 µM in [2]; 5.96 µM in test [3]; 2.18 µM in test [4]; 4.93 µM in [5]; above 100 µM in test [6]. The GI50 in test [7] is 0.0292 µM; in [8] it was 1.68 µM; in [9], 0.355 µM; in [10], 0.228 µM. Besides, the TGI in test [1] was above 100 µM; in [2], above 100 µM; in test [3], above 100 µM; in test [4], above 100 µM; in test [5], above 26.5 µM; in test [6], above 100 µM. Besides, the TGI in test [7] was above 100 µM; in [8], 13.5 µM; in [9] it was above 100 µM; in test [10], above 26 µM.
